No end group written: not given here.
Legend:
HEK293T = test: Mammalian cell cytotoxicity, WST-1, FBS-free medium; type: cell-based, human; details: HEK293T cells, mean ± SD, triplicated
Description: (§1) Two mammalian cell lines, including human embryonic kidney cells (HEK293T) and human breast cancer cells (MCF7) were cultured in Dulbecco’s modified Eagle’s medium (DMEM; Hyclone^TM, Logan, UT, United States) supplemented with 10% FBS (Hyclone^TM) and 1% penicillin/streptomycin (Hyclone^TM) and incubated at 37°C and 5% CO2 up to 80% confluence. Cellular adherence to the substratum was disrupted using Accutase (Innovative Cell Technologies, San Diego, CA, United States). In total, 1 × 10^4 to 4 × 10^4 cells in each well of a 96-well plate containing 8, 16, 32, and 64 μg/mL of ModoCath peptides were incubated for 24 h at 37°C and 5% CO2. Additionally, HEK293T cells were incubated in the FBS-free medium. Triton X 100 (Sigma Aldrich) was used as a positive control for complete cell lysis, and untreated cells were used as the negative control. After incubation, the medium was removed from the wells, and 10 μL of coloring solution (Cell Proliferation Reagent WST-1^TM; Sigma Aldrich) and 100 μL of DMEM (Hyclone^TM) were added to the wells in accordance with the manufacturer’s protocol. Absorbance was measured for each well at 440 nm (peptide-treated and control) and 650 nm (background) and recorded as the OD, using a microplate reader (xMark^TM spectrophotometer; Bio-Rad). Cell viability was calculated using the following equation:
(1) CellViability(%)=100×(ODpeptide-ODbackground)/(ODnegative-ODbackground)
All experiments were performed in triplicate.

E. coli (ATCC 25922) = test: Serum stability: antimicrobial activity after incubation in human serum; type: in vitro ADME, Escherichia coli; details: for antimicrobial activity after incubation with human serum: 25% (v/v) pooled human serum, 37°C, activity against E. coli, OD 450 nm, triplicate; for antimicrobial activity after incubation with serum: 25% pooled human serum, 0, 60 and 120 min, Figure S6
Description: Antimicrobial peptides were dissolved in 25% (v/v) pooled human serum from five individuals, and incubated at 37°C. Aliquots were extracted in triplicate after 0, 60, and 120 min incubation, and their antimicrobial activity against E. coli (ATCC 25922) was assessed using the incubated samples, as described above.

[1] = system: Human primary keratinocytes; test: Viability of keratinocytes, XTT; type: cell-based; details: 24 h, XTT
Text: The Ethics Committee of the Poitiers Hospital approved the use of human skin samples for research studies. All subjects provided written informed consent in accordance with the tenets of the Declaration of Helsinki. Normal abdominal or breast skin samples were obtained from patients undergoing plastic surgery and thoroughly washed with PBS free of calcium and magnesium (PBS; Gibco, Thermo Fisher Scientific, Waltham, MA, United States) after fat removal. The skin samples were minced into fragments of approximately 125 mm^2, using scalpel blades. Skin samples were incubated overnight at 4°C in a dispase solution (25 U/mL; Life Technologies, Carlsbad, CA, United States). Epidermal sheets were removed from the dermis, and keratinocytes were dissociated via trypsin digestion (trypsin-EDTA; Gibco) for 15 min at 37°C. The cell suspension was then filtered through a 280-μm sterile filter. DMEM (Gibco) supplemented with 10% (vol/vol) of FBS (Gibco) was added, and the suspension was centrifuged at 300 × g and 25°C for 10 min. Keratinocytes were seeded at a density of 10^7 cells in 75-cm^2 tissue culture flask in keratinocyte-serum free medium (K-SFM; Invitrogen, Carlsbad, CA, United States) supplemented with bovine pituitary extract (25 μg/mL; Invitrogen) and recombinant epidermal growth factor (EGF) (0.25 ng/mL; Invitrogen). The cultures were incubated at 37°C in a humidified atmosphere with 5% CO2 until 80% confluence and then stored frozen in liquid nitrogen until use. Finally, keratinocytes were seeded in sterile 24-well culture plates at 10^5 cells/well in K-SFM supplemented with bovine pituitary extract and EGF and cultured to 80% confluence. Cells were then starved overnight in K-SFM alone before stimulation.
(§2) Primary keratinocytes were cultured in 96-well plates at 4 × 10^4 cells per well in 0.1 mL K-SFM (Invitrogen) up to 80% confluence before being treated with various concentrations of ModoCath peptides for 24 h. Cell viability was assessed using the cell proliferation kit II (XTT; Roche, Basel, Switzerland) in accordance with the manufacturer’s protocol. The XTT labeling mixture was added after 24 h of incubation in the absence or presence of peptides at the indicated concentrations.

[2] = system: HEK293T and MCF7 cells and human primary keratinocytes; test: Cytotoxicity, summary over all tested cells; type: cell-based; details: at concentrations below 16 μg/mL
Description: as §1, with “Triton X 100 (Sigma Aldrich) was used as a positive control for complete cell lysis, and untreated cells were used as the negative control. After incubation, the medium was removed from the wells, and 10 μL of coloring solution (Cell Proliferation Reagent WST-1^TM; Sigma Aldrich) and 100 μL of DMEM (Hyclone^TM) were added to the wells in accordance with the manufacturer’s protocol.” left out, “equation: […]” for “equation:”
as §2, with “The XTT labeling mixture was added after 24 h of incubation in the absence or presence of peptides at the indicated concentrations.” left out

[3] = at a higher concentration than 1x MIC

| Sequence | Cell viability ± SD (%) Serum negative (HEK293T; peptide 8 ㎍/㎖) | Cell viability ± SD (%) Serum negative (HEK293T; peptide 16 ㎍/㎖) | Cell viability ± SD (%) Serum negative (HEK293T; peptide 32 ㎍/㎖) | Cell viability ± SD (%) Serum negative (HEK293T; peptide 64 ㎍/㎖) | antimicrobial activity after incubation with human serum (E. coli (ATCC 25922); 60 min, at >∼2× MIC) | antimicrobial activity after incubation with human serum (E. coli (ATCC 25922); 120 min) | antimicrobial activity after incubation with serum (E. coli (ATCC 25922); at 1x MIC) | antimicrobial activity after incubation with serum (E. coli (ATCC 25922); [3]) | Cell viability ± SD ([1]; 8 μg/mL) | Cell viability ± SD ([1]; 16 μg/mL) | Cell viability ± SD ([1]; 32 μg/mL) | Cell viability ± SD ([1]; 64 μg/mL) | Cell survivability [2] |
| --- | --- | --- | --- | --- | --- | --- | --- | --- | --- | --- | --- | --- | --- |
| VKRTKRGARRGLTKVLKKIFGSIVKKAVSKGV [ΔModoCath1] | 109.5±9.8% | 103.7±6.9% | 69.5±7.9% | 55.9±4.4% | unaffected | decreased | highly affected | considerably stable | 97.1 ± 2.9% | 91.4 ± 1.6% | 56.2 ± 8.4% | 5.8 ± 3.7% | > 90% |
| VRRSKRGIKVPSFVKKVLKDVVSESIS [ΔModoCath6] |  |  |  |  |  |  |  |  | 98.0 ± 1.6% | 100.3 ± 1.3% | 101.0 ± 2.6% | 89.2 ± 7.2% | > 90% |
| WYQLIRTFGNLIHQKYRKLLEAYRKLRD [ΔModoCath5] | 98.6±6.5% | 63.5±5.2% | 39.3±7.6% | 34.0±1.6% | unaffected | decreased | highly affected | considerably stable | 98.1 ± 0.6% | 96.2 ± 3.5% | 79.1 ± 13.0% | 48.9 ± 15.5% |  |
